# Measurements: patent publication US11938098B2, “Method for killing HIV-infected cells using Bcl-2 inhibitors” (Mayo Foundation for Medical Education and Research, priority 2015, dated 2024)
# Assays:
# [1] = tested on: Jurkat T cells stably expressing eGFP; experiment: Apoptosis and marker loss in Jurkat T cells stably expressing eGFP treated with CPT; assay type: cell-based
# Protocol: FIGS. 12A-12G. Apoptotic cell death is associated with loss of protein and mRNA markers. Jurkat T cells stably expressing eGFP were treated with DMSO or CPT and assessed for cell viability by ATP content (FIG. 12A) and light scatter (FIG. 12B) over time. FIG. 12C, Expression of eGFP was measured by flow cytometry. FIG. 12D, Actin mRNA expression was assessed by qRT-PCR and expressed as mean Ct values normalized to baseline DMSO control. FIGS. 12E-12G, Cell death was assessed by active-caspase 3 expression (FIG. 12E), TUNEL (FIG. 12F), and LIVE/DEAD viability stain (FIG. 12G) and compared between eGFP positive and eGFP negative cells. FIG. 12A-12D values represent mean (range) of two independent experiments. FIGS. 12E-12G are representative of two independent experiments.
# If BCL-2 neutralizes Casp8p41, then antagonizing BCL-2 should augment Casp8p41-induced killing, including when Casp8p41 is generated by latently HIV infected cells that reactivate the virus. Before testing this possibility, whether select markers (protein or nucleic acid based) remain detectable was first assessed when the cell of interest is undergoing death. Jurkat T cells stably expressing eGFP were treated with vehicle control or the cytotoxic quinolone alkaloid CPT to induce apoptosis, then examined for expression of eGFP (as a prototypic cytoplasmic protein) and actin mRNA (as a prototypic mRNA) over time.
# [2] = tested on: latently HIV infected CD4 T cells; experiment: Ex vivo HIV reactivation (αCD3/αCD28) in CD4 T cells from suppressed HIV-infected patients; assay type: cell-based, human
# Protocol: FIGS. 10A-10E. Selective Bcl-2 inhibition reduces HIV DNA associated with cells after viral reactivation ex vivo. […] After 72 hours, cell associated HIV DNA was measured. FIG. 10B, Freshly obtained peripheral CD4 T cells from an additional 16 suppressed HIV-infected patients were treated with ABT-199 or DMSO followed by αCD3/αCD28 for 72 hours before cell associated HIV DNA was measured. Depicted is the ratio of HIV DNA in ABT-199 treated vs. diluent treated samples for each patient with measurable HIV DNA in the diluent sample (n=11). FIG. 10C, Primary CD4 T cells from HIV-infected subjects were treated with ABT-199 or diluent and assayed for intracellular Casp8p41 and active caspase 3 in the TCM subset. Representative data of three independent subjects. FIG. 10D, Primary CD4 T cells from four HIV-infected subjects were treated with venetoclax or diluent and induced to reactivate HIV using CD3/CD28, and cell death measured in HIV P24 positive or negative cells using activated caspase 3 staining. FIG. 10E, HIV RNA was measured in cell culture supernatant from 6 of the 11 patient experiments from FIG. 10B.
# Jurkat and Jurkat/Bcl-2 cells were infected overnight, while primary PHA-activated CD4 T cells were infected for 6 hours with HIV-1IIIb (NIH AIDS Reagent Program). Aliquots of the same infectious supernatant were used for all experiments. Cells were then washed three times and incubated in fresh medium. At the indicated time points, HIV-1 p24 in the cell culture supernatant was measured by RETROTEK™ ELISA kits (Zeptometrix Corporation) according to manufacturer's protocol. […] Briefly, total DNA was extracted using the Qiagen DNeasy Blood and Tissue kit (Hilden, Germany) and analyzed by a real-time polymerase chain reaction (PCR) assay specific for HIV-LTR and β-globin. […] Total HIV-1 DNA was compared and normalized with genomic DNA, determined by β-globin. HIV-1 proviral DNA levels were expressed as HIV-1 copies/β-globin genomic equivalent of 10^6 cells.
# [3] = tested on: Primary CD4 T cells from uninfected donors; experiment: Mitogen-induced proliferation of uninfected CD4 T cells by CFSE staining; assay type: cell-based, human; conditions: phytohemagglutinin, 1 μM, Day 3
# Description: (§1) Jurkat cells and HEK 293T cells were obtained from American Type Culture Collection (Manassas, Va.). Jurkat/Bcl-2 cells were created by transfecting Jurkat with a pcDNA-3 encoding Bcl-2 (obtained from Dr. Stan Korsmeyer), selecting for 30 days, and assessing Bcl-2 expression by immunoblotting. HIV-uninfected PBMCs were harvested by ficoll gradient centrifugation from Leukocyte Reduction System apheresis chambers provided by healthy volunteer blood donors. […]
# (§2) Immunophenotyping of T cell subsets was performed using multicolor flow cytometry with monoclonal antibodies to human CD3 (Alexa700, BD Pharmingen), CD4 (FITC, BD Pharmingen), CD8 (Pacific Blue, BD Pharmingen), CD27 (PE, BD Pharmingen), and CD45RO (ECD, Beckman Coulter). […] Intracellular expression of Casp8p41 was assessed as described elsewhere (Cummins et al., AIDS Res. Hum. Retroviruses, 30:476-479 (2014)). Cell death was measured using LIVE/DEAD® Fixable Aqua dead cell stain (Invitrogen) or TUNEL (Roche) according to manufacturers' protocols. Cell proliferation was measured using a CellTrace™ CFSE Cell Proliferation Kit (Life Technologies) according to manufacturer's protocol. […] FACS data were analyzed using FlowJo software (Tree Star Inc).
# [4] = cited from earlier work
# HIV-1IIIb = experiment: Acute HIVIIIb infection of primary CD4 T cells in vitro (viability, p24, cell associated HIV DNA); assay type: cell-based
# Description: as §1
# as §2, with “Inc). […]” for “Inc).”
# Jurkat T cells = experiment: TUNEL cell death in Jurkat T cells transfected with EGFP-Casp8p41, vector control or no DNA; assay type: cell-based; conditions: Jurkat cells expressing eGFP-Casp8p41, 1 μM
# Protocol: HEK 293T cells were transfected using Lipofectamine (Invitrogen, Carlsbad, Calif.) according to manufacturer's protocol. Jurkat cells were transfected using a square wave electroporator (BXT, San Diego, Calif.) at 320 V. Immunophenotyping of T cell subsets was performed using multicolor flow cytometry with monoclonal antibodies to human CD3 (Alexa700, BD Pharmingen), CD4 (FITC, BD Pharmingen), CD8 (Pacific Blue, BD Pharmingen), CD27 (PE, BD Pharmingen), and CD45RO (ECD, Beckman Coulter). Central memory T cells (TCM) were defined as CD3^+CD4^+CD27^+CD45RO^+, and effector memory T cells (TEM) were defined as CD3^+CD4^+CD27^−CD45RO^+/− (Brenchley et al., J. Exp. Med., 200:749-759 (2004)). Intracellular expression of Casp8p41 was assessed as described elsewhere (Cummins et al., AIDS Res. Hum. Retroviruses, 30:476-479 (2014)). Cell death was measured using LIVE/DEAD® Fixable Aqua dead cell stain (Invitrogen) or TUNEL (Roche) according to manufacturers' protocols. Cell proliferation was measured using a CellTrace™ CFSE Cell Proliferation Kit (Life Technologies) according to manufacturer's protocol. FACS analysis was performed on either a FACScan or LSRII flow cytometer (BD Biosciences) based on multiparameter needs. FACS data were analyzed using FlowJo software (Tree Star Inc).
# [5] = in vivo; cited from earlier work
# [6] = tested on: Primary CD4 T cells from uninfected donors; experiment: Viability of primary uninfected CD4 T cells by flow cytometry; assay type: cell-based, human; conditions: N=7, 1 μM, Day 5
# Description: as §1, §2
# [7] = tested on: Primary CD4 T cells from ART-suppressed HIV positive patients; experiment: Viability by trypan blue exclusion of CD4 T cells from ART-suppressed HIV positive patients; assay type: cell-based, human; conditions: bulk primary CD4 T cells from HIV infected ART suppressed patients; 1 μM; 24 hours
# Protocol: FIGS. 11A-11D. […] FIG. 11A, Jurkat T cells pretreated with increasing concentrations of venetoclax or diluent DMSO were transfected with EGFP-Casp8p41, vector control, or no DNA, and assayed for cell death by TUNEL. Data are representative of three independent experiments. FIG. 11B, Primary CD4 T cells from seven uninfected donors were treated with venetoclax (1 μM) or diluent, and assayed for cell viability by flow cytometry over 5 days. FIG. 11C, Primary CD4 T cells from four uninfected donors were stimulated with phytohemagglutinin (2 μg/mL) in the presence of venetoclax (1 μM) or diluent and assayed for proliferation by CFSE staining. FIG. 11D, Primary CD4 T cells from seven ART-suppressed HIV positive patients were treated with venetoclax (1 μM) or DMSO control for 24 hours and assessed for viability by trypan blue exclusion.
# Bcl-2 = experiment: SPR binding of Casp8p41 to purified recombinant Bcl-2; conditions: Bcl-2 Arg146Ala vs Bcl-2, SPR
# Protocol: After plasmids encoding GST tagged proteins were transformed into E. coli BL21 or DH5α by heat shock, bacteria were grown to an optical density of 0.8 and induced with 1 mM IPTG for 3 hours at 37° C. Bacteria were disrupted by freezing and thawing in calcium- and magnesium-free Dulbecco's phosphate buffered saline (PBS) containing 0.1% Triton X-100, 2 μg/mL aprotinin, 10 μg/mL leupeptin, 2 μg/mL pepstatin, and 1 mM PMSF, then sonicated three times for 15 sec/min on ice. GST-tagged proteins were purified with glutathione-agarose (Thermo Fisher Scientific, Rockford, Ill.).
# Proteins for SPR were further purified by FPLC on Superdex 5200, concentrated in a centrifugal concentrator (Centricon, Millipore), dialyzed against Biacore buffer (10 mM HEPES (pH 7.4), 150 mM NaCl, 0.05 mM EDTA, and 0.005% (w/v) Polysorbate 20) and stored at 4° C. for <48 hours before use. Binding assays were performed at 25° C. on a Biacore 3000 biosensor after proteins were immobilized on a CMS chip (GE Healthcare). Ligands were injected at 30 μL/minute for 1 minute in Biacore buffer. Bound protein was allowed to dissociate in Biacore buffer at 30 μL/minute for 10 minutes and then desorbed with 2 M MgCl2. Binding kinetics were derived using BIA evaluation software (Biacore, Uppsala, Sweden).
compound,measurement,setting,value
"CC[C@@]1(O)C(=O)OCc2c1cc1n(c2=O)Cc2cc3ccccc3nc2-1 [CPT, camptothecin]",eGFP negative cells,[1]; by 48 hours,97%
same,cell viability by cellular ATP content and light scatter,[1]; compared to diluent-treated cells,decreased cell viability
same,reduction of detectable actin message compared to diluent control,[1]; qRT-PCR,34%
same,detectable eGFP (eGFP+ cells),[1]; {},17 % eGFP+
CC1(C)CCC(CN2CCN(c3ccc(C(=O)NS(=O)(=O)c4ccc(NCC5CCOCC5)c([N+](=O)[O-])c4)c(Oc4cnc5[nH]ccc5c4)c3)CC2)=C(c2ccc(Cl)cc2)C1 [venetoclax],samples exhibiting a decrease of cell associated HIV DNA,"[2]; freshly isolated primary CD4 T cell samples, 8 of 11",73%
same,median cell death (active caspase 3) in p24− cells,"[2]; αCD3/αCD28 reactivated, control 2.5%, P=0.189",10.3%
same,proportion of HIV p24+ CD4+ cells that are active caspase 3+,"[2]; αCD3/αCD28 reactivated, control 23%, P=0.026",47 % active caspase 3+
same,mean difference in percent CFSE low cells,[3],-1.1±7.9%
same,cases of dose limiting neutropenia,[4]; 40 NHL patients receiving monotherapy,2 cases
same,tolerability in early phase clinical trials,"[4]; human, in vivo",well tolerated
same,survival or mitogen-induced proliferation of mock-infected CD4 T cells,HIV-1IIIb,had no effect
same,"increase in cell death, mean difference vs diluent",Jurkat T cells,25.7±10.3%
same,peak plasma levels,[5],up to 5 μM
same,"viability, mean difference vs control treated cells",[6],−7.2±4.8%
same,"viability, mean difference vs DMSO control",[7],−4.7±1.6 % viable
DMNLLDIFIEMEKRVILGEGKLDILKRVCAQ (Casp8p41 BH3-like peptide) [Casp8p41 activator peptide],decrease of affinity of Bcl-2 by substitution of Ala for Bcl-2 Arg146,Bcl-2,250 fold
